Target: T1, 15-PGDH/HPGD (Homo sapiens, UniProt P15428)
T1 construct: purchased R&D System 5660-DH
T1 sequence (P15428 1-266): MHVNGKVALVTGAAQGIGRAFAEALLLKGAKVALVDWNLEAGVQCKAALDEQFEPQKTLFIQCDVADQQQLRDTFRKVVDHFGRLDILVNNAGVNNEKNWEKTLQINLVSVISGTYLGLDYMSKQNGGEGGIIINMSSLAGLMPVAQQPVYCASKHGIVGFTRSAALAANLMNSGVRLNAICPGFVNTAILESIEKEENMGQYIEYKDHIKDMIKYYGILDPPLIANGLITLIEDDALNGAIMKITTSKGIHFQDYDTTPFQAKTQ
Assay: hPGDH inhibitor screening biochemical assay
Conditions: 10 nM enzyme, 15 μM PGE2, 0.25 mM NAD, fluorescence ex/em 340/485 nm
Method: A hydroxyprostaglandin dehydrogenase inhibition screening biochemical assay can be performed to assess the synthesized inhibitors provided herein. Provided herein is an exemplary biochemical assay for hPGDH inhibitor screening.
The in vitro biochemical assay can be performed in white, 384 plates in total 20 μl reaction volume consisting of 10 nM of 15-PGDH/HPGD (R&D System #5660-DH), 15 μM Prostaglandin E2 (Sigma, C8 t #P5640-10 MG) and 0.25 mM β-Nicotinamide adenine dinucleotide sodium salt (Sigma, C8 t #N0632-5G) made in reaction buffer (50 mM Tris-HCl, pH 7.5, 0.01% Tween 20) at 10-point dose response curve for test/tool compounds. Briefly, 5 μl (4×) of compounds solution and 5 μl (final concentration, 10 nM) of enzyme solution is added to white 384 well plates and incubated for 10 mins at 37° C. 5 μl (4×) of […] and 5 μl (4×) of β-Nicotinamide adenine dinucleotide sodium salt is added to the wells and incubated for 10 mins at room temperature. Fluorescence is recorded at ex/em=340 nm/485 nm. The percentage (%) inhibition of enzyme activity was determined relative to positive control (1% DMSO) and IC50 was calculated using GraphPad prism software (four parameter-variable slope equation).

SMILES | IC50 [nM]
N=C(NN)c1ccc(-n2ccc3cc(C(=O)N4CCC(F)(F)CC4)cnc32)cn1 [Compound B-48, 5-(5-(4,4-difluoropiperidine-1-carbonyl)-1H-pyrrolo[2,3-b]pyridin-1-yl) picolinimidohydrazide] | < 100
O=C(c1cnc2c(ccn2-c2ccc(-c3ncn[nH]3)nc2)c1)N1CC[C@H](O)C1 [Compound B-43] | 100 to 1000
Cc1nc(-c2cncc(-n3ccc4cc(C(=O)N5CCC(F)(F)CC5)cnc43)c2)c[nH]1 [Compound B-15] | < 100
CN(C)c1nnc(-c2cccc(-n3ccc4cc(C(=O)N5CCC(F)(F)CC5)cnc43)c2)[nH]1 [Compound B-73] | < 100
CC1CCCN(C(=O)c2cnc3c(ccn3-c3ccc(C#N)cc3)c2)C1 (stereo in doubt) [Compound B-10, (R)-4-(5-(3-methylpiperidine-1-carbonyl)-1H-pyrrolo[2,3-b1 pyridin-1-yl)benzonitrile] | < 100
O=C(c1cnc2c(ccn2-c2ccc(-c3nc[nH]n3)cn2)c1)N1CCC(F)(F)CC1 [Compound B-34, (1-(5-(1H-1,2,4-triazol-3-yl)pyridin-2-yl)-1H-pyrrolo[2,3-b]pyridin-5-yl)(4,4-difluoropiperidin-1-yl)methanone] | < 100
CO[C@@H]1CCN(C(=O)c2cnc3c(ccn3-c3ccc(-c4ncn[nH]4)nc3)c2)C1 [Compound B-44] | < 100
O=C(c1cnc2c(ccn2-c2cnn(CC(F)(F)F)c2)c1)N1CCCC(C(F)(F)F)C1 (centres unmarked) [Compound B-59] | 100 to 1000
Cc1nn[nH]c1-c1cncc(-n2ccc3cc(C(=O)N4CCC(F)(F)CC4)cnc32)c1 [Compound B-18, (4,4-difluoropiperidin-1-yl) (1-(5-(4-methyl-1H-1,2,3-triazol-5-yl)pyridin-3-yl)-1H-pyrrolo[2,3-b]pyridin-5-yl)methanone] | < 100
C[C@H]1CCCN(C(=O)c2cnc3c(ccn3-c3cccc(-c4nc[nH]n4)c3)c2)C1 [Compound B-37, (S)-(1-(3-(1H-1,2,4-triazol-3-yl)phenyl)-1H-pyrrolo[2,3-b]pyridin-5-yl)(3-methylpiperidin-1-yl)methanone] | < 100
CC1CN(C(=O)c2cnc3c(ccn3-c3ccc(-c4ncn[nH]4)nc3)c2)CC(C)O1 (centres unmarked) [Compound B-47, (1-(6-(1H-1,2,4-triazol-5-yl)pyridin-3-yl)-1H-pyrrolo[2,3-b]pyridin-5-yl)(2,6-dimethylmorpholino) methanone] | < 100
C[C@H]1CCCN(C(=O)c2cnc3c(ccn3-c3ccc(-c4nc[nH]n4)cc3)c2)C1 [Compound B-33, (S)-(1-(4-(1H-1,2,4-triazol-3-yl)phenyl)-1H-pyrrolo[2,3-b]pyridin-5-yl)(3-methylpiperidin-1-yl)methanone] | < 100
C[C@H]1CCCN(C(=O)c2cnc3c(ccn3-c3ccc(N4CCNC4=O)nc3)c2)C1 [Compound B-30] | < 100
O=C(c1cnc2c(ccn2-c2ccc(N3CCN(c4ccc(-n5ccc6cc(C(=O)N7CCC(F)(F)CC7)cnc65)cn4)C3=O)nc2)c1)N1CCC(F)(F)CC1 [Compound B-13] | 100 to 1000
C[C@H]1CCCN(C(=O)c2cnc3c(ccn3-c3ccc(-c4nnc[nH]4)nc3)c2)C1 [Compound B-28] | < 100
C[C@@H]1CCN(C(=O)c2cnc3c(ccn3-c3ccc(C(=O)O)cc3)c2)C1 [Compound B-5] | < 100
CC(C)c1nnc(-c2ccc(-n3ccc4cc(C(=O)N5CCC(F)(F)CC5)cnc43)cc2)[nH]1 [Compound B-58] | < 100
COCCn1cc(-n2ccc3cc(C(=O)N4CCC(F)(F)CC4)cnc32)cn1 [Compound B-62] | 100 to 1000
Nc1nnc(-c2cccc(-n3ccc4cc(C(=O)N5CCC(F)(F)CC5)cnc43)c2)[nH]1 [Compound B-71] | < 100
C[C@H]1CCCN(C(=O)c2cnc3c(ccn3-c3ccc(C(=O)O)cc3)c2)C1 [Compound B-4] | < 100
O=C(c1cnc2c(ccn2-c2ccc(-c3nnc[nH]3)cc2)c1)N1CCC(F)(F)CC1 [Compound B-26, (1-(4-(1H-1,2,4-triazol-5-yl)phenyl)-1H-pyrrolo[2,3-b]pyridin-5-yl)(4,4-difluoropiperidin-1-yl)methanone] | < 100
CC1CN(C(=O)c2cnc3c(ccn3-c3ccc(-c4nc(N)n[nH]4)nc3)c2)CCO1 (centres unmarked) [Compound B-49, (1-(6-(3-amino-1H-1,2,4-triazol-5-yl)pyridin-3-yl)-1H-pyrrolo [2,3-b]pyridin-5-yl)(2-methylmorpholino)methanone] | < 100
Cc1nnc(-c2cncc(-n3ccc4cc(C(=O)N5CCC(F)(F)CC5)cnc43)c2)[nH]1 [Compound B-22, (4,4-difluoropiperidin-1-yl) (1-(5-(5-methyl-4H-1,2,4-triazol-3-yl)pyridin-3-yl)-1H-pyrrolo[2,3-b]pyridine-5-yl) methanone] | < 100
COc1ccc(Cn2cc(-c3ccc(-n4ccc5cc(C(=O)N6CCC(F)(F)CC6)cnc54)cn3)nc2C)cc1 [Compound B-24, (4,4-difluoropiperidin-1-yl) (1-(6-(1-(4-methozybenzyl)-2-methyl-1H-imidazol-4-yl)pyridin-3-yl)-1H-pyrrolo[2,3-b]pyridin-5-yl)methanone] | < 100
Cc1cnc(-c2cncc(-n3ccc4cc(C(=O)N5CCC(F)(F)CC5)cnc43)c2)[nH]1 [Compound B-14] | < 100
O=C(c1cnc2c(ccn2-c2cncc(-c3n[nH]c(C4CC4)n3)c2)c1)N1CCC(F)(F)CC1 [Compound B-1, (1-(5-(5-cyclopropyl-1H-1,2,4-triazol-3-yl)pyridin-3-yl)-1H-pyrrolo [2,3-b]pyridin-5-yl)(4,4-difluoropiperidin-1-yl)methanone] | < 100
Nc1nnc(-c2ccc(-n3ccc4cc(C(=O)N5CCCC(F)(F)C5)cnc43)cc2)[nH]1 [Compound B-54] | < 100
C[C@H]1CCCN(C(=O)c2cnc3c(ccn3-c3ccc4nc(N)nn4c3)c2)C1 [Compound B-29] | < 100

The remaining lines, values ahead:

IC50 [nM] | SMILES
< 100 | C[C@@]1(O)CCCN(C(=O)c2cnc3c(ccn3-c3ccc(-c4nnc[nH]4)cc3)c2)C1 [Compound B-243]
< 100 | O=C(c1cnc2c(ccn2-c2cc(Cl)cc(-c3nnc[nH]3)c2)c1)N1CCSCC1 [Compound B-251]
< 100 | O=C(c1cnc2c(ccn2-c2ccc(-c3nnc[nH]3)c(Cl)c2)c1)N1CCSCC1 [Compound B-253]
< 100 | CC1(O)CCCN(C(=O)c2cnc3c(ccn3-c3ccc(-c4nnc[nH]4)c(Cl)c3)c2)C1 (centres unmarked) [Compound B-258]
< 100 | O=C(Nc1cncc(-n2ccc3cc(C(=O)N4CCC(F)(F)CC4)cnc32)c1)C1CCC(F)(F)CC1 [Compound B-237]
< 100 | N#Cc1cc(-n2ccc3cc(C(=O)N4CCC(F)(F)CC4)cnc32)ccc1-c1nnc[nH]1 [Compound B-273]
< 100 | C[C@]1(O)CCCN(C(=O)c2cnc3c(ccn3-c3cccc(-c4nnc[nH]4)c3)c2)C1 [Compound B-249]
< 100 | CC1(O)CCCN(C(=O)c2cnc3c(ccn3-c3cc(Cl)cc(-c4nnc[nH]4)c3)c2)C1 (centres unmarked) [Compound B-240]
< 100 | O=C(c1cnc2c(ccn2-c2ccc(-c3nnc[nH]3)c(F)c2)c1)N1CCSCC1 [Compound B-254]
< 100 | CN(C)c1nnc(-c2ccc(-n3ccc4cc(C(=O)N5CCC(F)(F)CC5)cnc43)cc2)[nH]1 [Compound B-77]
< 100 | CO[C@H]1CCCN(C(=O)c2cnc3c(ccn3-c3ccc(-c4nnc[nH]4)c(F)c3)c2)C1 [Compound B-247]
< 100 | CCOC(=O)Nc1cncc(-n2ccc3cc(C(=O)N4CCCC(C(F)(F)F)C4)cnc32)c1 (centres unmarked) [Compound B-238]
< 100 | O=C(c1cnc2c(ccn2-c2cnn(C3CCOCC3)c2)c1)N1CCC(F)(F)CC1 [Compound B-94]
< 100 | O=C(c1cnc2c(ccn2-c2ccc(-c3nnc[nH]3)c(F)c2)c1)N1CC[S+]([O-])CC1 [Compound B-268]
< 100 | O=C(c1cnc2c(ccn2-c2cc(Cl)cc(-c3nnc[nH]3)c2)c1)N1CC[S+]([O-])CC1 [Compound B-257]
100 to 1000 | O=C(c1cnc2c(ccn2-c2ccc(-c3nnc[nH]3)c(Cl)c2)c1)N1CC[S+]([O-])CC1 [Compound B-261]
< 100 | CO[C@@H]1CCCN(C(=O)c2cnc3c(ccn3-c3ccc(-c4nnc[nH]4)c(F)c3)c2)C1 [Compound B-246]
< 100 | CN1CCN(c2ccc(-n3ccc4cc(C(=O)N5CCC(F)(F)CC5)cnc43)cn2)C1=O [Compound B-91]
< 100 | O=C(c1cnc2c(ccn2-c2ccc(-c3cnc[nH]3)cc2)c1)N1CCC(F)(F)CC1 [Compound B-226]
< 100 | CCOC(=O)Nc1cncc(-n2ccc3cc([S+]([O-])C4CCCC4)cnc32)c1 (centres unmarked) [Compound B-316]
< 100 | O=C(c1cnc2c(ccn2-c2ccc(-c3nnc[nH]3)cc2)c1)N1CCC[C@H](C(F)(F)F)C1 [Compound B-229]
< 100 | CC1(O)CCCN(C(=O)c2cnc3c(ccn3-c3cc(F)cc(-c4nnc[nH]4)c3)c2)C1 (centres unmarked) [Compound B-241]
